# Experimental data taken from ChEMBL document CHEMBL1143799, “Synthesis and primary cytotoxicity evaluation of new imidazo[2,1-b]thiazole derivatives” (2007).
# Columns and labels:
# Format in all cases: functional
# HCT-15 = test: Growth inhibition of human HCT15 cells after 48 hrs by SRB protein assay; conditions: HCT-15, 48 h
# NCI-H522 = test: Growth inhibition of human NCI-H522 cells after 48 hrs by SRB protein assay; conditions: NCI-H522, 48 h
# UACC-257 = test: Growth inhibition of human UACC257 cells after 48 hrs by SRB protein assay; conditions: UACC-257, 48 h
# CAKI-1 = test: Growth inhibition of human CAKI1 cells after 48 hrs by SRB protein assay; conditions: CAKI-1, 48 h
# PC-3 = test: Growth inhibition of human PC3 cells after 48 hrs by SRB protein assay; conditions: PC-3, 48 h
# SF-268 = test: Growth inhibition of human SF268 cells after 48 hrs by SRB protein assay; conditions: SF-268, 48 h
# SK-MEL-28 = test: Growth inhibition of human SK-MEL-28 cells after 48 hrs by SRB protein assay; conditions: SK-MEL-28, 48 h
# SNB-19 = test: Growth inhibition of human SNB19 cells after 48 hrs by SRB protein assay; conditions: SNB-19, 48 h
# NCI-H23 = test: Growth inhibition of human NCI-H23 cells after 48 hrs by SRB protein assay; conditions: NCI-H23, 48 h
# HOP-62 = test: Growth inhibition of human HOP62 cells after 48 hrs by SRB protein assay; conditions: HOP-62, 48 h
# KM12 = test: Growth inhibition of human KM12 cells after 48 hrs by SRB protein assay; conditions: KM12, 48 h
# UACC-62 = test: Growth inhibition of human UACC62 cells after 48 hrs by SRB protein assay; conditions: UACC-62, 48 h
# SK-MEL-5 = test: Growth inhibition of human SK-MEL-5 cells after 48 hrs by SRB protein assay; conditions: SK-MEL-5, 48 h
# NCI-H460 = test: Growth inhibition of human NCI-H460 cells after 48 hrs by SRB protein assay; conditions: NCI-H460, 48 h
# SK-OV-3 = test: Growth inhibition of human SK-OV-3 cells after 48 hrs by SRB protein assay; conditions: SK-OV-3, 48 h
# HOP-92 = test: Growth inhibition of human HOP92 cells after 48 hrs by SRB protein assay; conditions: HOP-92, 48 h
# MCF7 = test: Growth inhibition of human MCF7 cells after 48 hrs by SRB protein assay; conditions: MCF7, 48 h
# [1] = Growth inhibition of human 786O cells after 48 hrs by SRB protein assay; conditions: 786-0, 48 h
# A549 = test: Growth inhibition of human A549 cells after 48 hrs by SRB protein assay; conditions: A549, 48 h
# DU-145 = test: Growth inhibition of human DU145 cells after 48 hrs by SRB protein assay; conditions: DU-145, 48 h
# SNB-75 = test: Growth inhibition of human SNB75 cells after 48 hrs by SRB protein assay; conditions: SNB-75, 48 h
# SW-620 = test: Growth inhibition of human SW620 cells after 48 hrs by SRB protein assay; conditions: SW-620, 48 h
# SK-MEL-2 = test: Growth inhibition of human SK-MEL-2 cells after 48 hrs by SRB protein assay; conditions: SK-MEL-2, 48 h
# LOX IMVI = test: Growth inhibition of human LOX IMVI cells after 48 hrs by SRB protein assay
# ACHN = test: Growth inhibition of human ACHN cells after 48 hrs by SRB protein assay
# SF-539 = test: Growth inhibition of human SF539 cells after 48 hrs by SRB protein assay; conditions: SF-539, 48 h
# NCI-H322M = test: Growth inhibition of human NCI-H322M cells after 48 hrs by SRB protein assay
# SF-295 = test: Growth inhibition of human SF295 cells after 48 hrs by SRB protein assay; conditions: SF-295, 48 h
# Hs-578T = test: Growth inhibition of human HS578T cells after 48 hrs by SRB protein assay
# HCC 2998 = test: Growth inhibition of human HCC2998 cells after 48 hrs by SRB protein assay; conditions: HCC 2998, 48 h
# MOLT-4 = test: Growth inhibition of human MOLT4 cells after 48 hrs by SRB protein assay; conditions: MOLT-4, 48 h
# RPMI-8226 = test: Growth inhibition of human RPMI8226 cells after 48 hrs by SRB protein assay; conditions: RPMI-8226, 48 h
# OVCAR-8 = test: Growth inhibition of human OVCAR8 cells after 48 hrs by SRB protein assay; conditions: OVCAR-8, 48 h
# MDA-MB-231 = test: Growth inhibition of MDA-MB-231 cells after 48 hrs by SRB protein assay; conditions: Homo sapiens, MDA-MB-231, 48 h
# EKVX = test: Growth inhibition of human EKVX cells after 48 hrs by SRB protein assay
# COLO 205 = test: Growth inhibition of human COLO205 cells after 48 hrs by SRB protein assay; conditions: COLO 205, 48 h
# MDA-MB-435 = test: Growth inhibition of human MDA-MB-435 cells after 48 hrs by SRB protein assay; conditions: MDA-MB-435, 48 h
# RXF 393 = test: Growth inhibition of human RXF393 cells after 48 hrs by SRB protein assay; conditions: RXF 393, 48 h
# OVCAR-3 = test: Growth inhibition of human OVCAR-3 cells after 48 hrs by SRB protein assay; conditions: OVCAR-3, 48 h
structure (smiles),measurement,setting,value
O=C(Cc1csc2nc(-c3ccc(Br)cc3)cn12)N/N=C/c1ccccc1O,GI50,HCT-15,0.955 µM
same,TGI,HCT-15; read-out: Log TGI (converted),17.4 µM
same,GI50,NCI-H522,5.25 µM
same,TGI,NCI-H522; read-out: Log TGI (converted),26.9 µM
same,GI50,UACC-257,3.72 µM
same,TGI,UACC-257; read-out: Log TGI (converted),11.5 µM
same,GI50,CAKI-1,0.398 µM
same,TGI,CAKI-1; read-out: Log TGI (converted),2.4 µM
same,GI50,PC-3,4.27 µM
same,TGI,PC-3; read-out: Log TGI (converted),16.6 µM
same,GI50,SF-268,> 100 µM
same,TGI,SF-268; read-out: Log TGI (converted),> 100 µM
same,GI50,SK-MEL-28,12 µM
same,TGI,SK-MEL-28; read-out: Log TGI (converted),24 µM
same,GI50,SNB-19,6.76 µM
same,TGI,SNB-19; read-out: Log TGI (converted),25.1 µM
same,GI50,NCI-H23,3.39 µM
same,TGI,NCI-H23; read-out: Log TGI (converted),14.1 µM
same,GI50,HOP-62,3.89 µM
same,TGI,HOP-62; read-out: Log TGI (converted),14.8 µM
same,GI50,KM12,3.63 µM
same,TGI,KM12; read-out: Log TGI (converted),17 µM
same,GI50,UACC-62,2.09 µM
same,TGI,UACC-62; read-out: Log TGI (converted),7.24 µM
same,GI50,SK-MEL-5,2.95 µM
same,TGI,SK-MEL-5; read-out: Log TGI (converted),10.7 µM
same,GI50,NCI-H460,15.8 µM
same,TGI,NCI-H460; read-out: Log TGI (converted),> 100 µM
same,GI50,SK-OV-3,12.9 µM
same,TGI,SK-OV-3; read-out: Log TGI (converted),30.2 µM
same,GI50,HOP-92,2.09 µM
same,TGI,HOP-92; read-out: Log TGI (converted),14.5 µM
same,GI50,MCF7,13.2 µM
same,TGI,MCF7; read-out: Log TGI (converted),> 100 µM
same,GI50,[1],4.68 µM
same,TGI,[1]; read-out: Log TGI (converted),17.8 µM
same,GI50,A549,6.17 µM
same,TGI,A549; read-out: Log TGI (converted),24 µM
same,GI50,DU-145,2.88 µM
same,TGI,DU-145; read-out: Log TGI (converted),13.8 µM
same,GI50,SNB-75,12.9 µM
same,TGI,SNB-75; read-out: Log TGI (converted),32.4 µM
same,GI50,SW-620,3.98 µM
same,TGI,SW-620; read-out: Log TGI (converted),17.4 µM
same,GI50,SK-MEL-2,20.9 µM
same,TGI,SK-MEL-2; read-out: Log TGI (converted),53.7 µM
same,GI50,LOX IMVI,3.47 µM
same,TGI,LOX IMVI; read-out: Log TGI (converted),12.9 µM
same,GI50,ACHN,1.58 µM
same,TGI,ACHN; read-out: Log TGI (converted),6.31 µM
same,GI50,SF-539,3.55 µM
same,TGI,SF-539; read-out: Log TGI (converted),11.7 µM
same,GI50,NCI-H322M,2.14 µM
same,TGI,NCI-H322M; read-out: Log TGI (converted),10.7 µM
same,GI50,SF-295,2.75 µM
same,TGI,SF-295; read-out: Log TGI (converted),9.33 µM
same,GI50,Hs-578T,13.5 µM
same,TGI,Hs-578T; read-out: Log TGI (converted),42.7 µM
same,GI50,HCC 2998,3.47 µM
same,TGI,HCC 2998; read-out: Log TGI (converted),12.6 µM
same,GI50,MOLT-4,2.34 µM
same,TGI,MOLT-4; read-out: Log TGI (converted),10.7 µM
same,GI50,RPMI-8226,2.82 µM
same,TGI,RPMI-8226; read-out: Log TGI (converted),20.9 µM
same,GI50,OVCAR-8,2.29 µM
same,TGI,OVCAR-8; read-out: Log TGI (converted),12.3 µM
same,GI50,MDA-MB-231,3.24 µM
same,TGI,MDA-MB-231; read-out: Log TGI (converted),17 µM
same,GI50,EKVX,3.89 µM
same,TGI,EKVX; read-out: Log TGI (converted),19.1 µM
same,GI50,COLO 205,5.13 µM
same,TGI,COLO 205; read-out: Log TGI (converted),22.9 µM
same,GI50,MDA-MB-435,3.31 µM
same,TGI,MDA-MB-435; read-out: Log TGI (converted),13.5 µM
same,GI50,RXF 393,38 µM
same,TGI,RXF 393; read-out: Log TGI (converted),63.1 µM
same,GI50,OVCAR-3,3.24 µM
same,TGI,OVCAR-3; read-out: Log TGI (converted),15.1 µM
